A word on the IC50: it is the point on the concentration scale where inhibition reaches its midpoint. A lower IC50 goes with inhibition by little substance.

Data set [1] relates to Ovarian cancer SKOV-3. As to the kind of experiment: In vitro proliferation assay (sulphorodamine B). The format is cell-based. The following applies: Homo sapiens, SK-OV-3, 72 h, mean ± S.E.M.
In data set [2] the test system is Chronic myeloid leukemia K562. In words: In vitro proliferation assay (sulphorodamine B). The data set is classed as cell-based. Particulars: Homo sapiens, 72 h, mean ± S.E.M.
A short description of data set [3]: PK sampling and analysis after a single oral dose of ST7612AA1 (plasma, LC-MS/MS). The data set is classed as in vivo, CD1 mice. Particulars: single oral dose of 120 mg/kg; limit of quantification 25 ng/mL. The method, then: CD1 nude mice were used. Male mice were treated with a single dose of ST7612AA1 at 120 mg/10 mL/kg p.o., using 5% Solutol HS 15 in water for injection as vehicle. Blood samples were collected at 0.25, 0.5, 1, 2, 4 and 6 h post treatment from 5 animals per time point. Levels of ST7612AA1 and ST7464AA1 were determined in plasma by quantitative LC-MS/MS having a limit of quantification of 25 ng/mL. The PK parameters Cmax (maximum plasma concentration), Tmax (time of maximum plasma concentration), Clast (last quantifiable concentration), Tlast (time of last quantifiable plasma concentration), AUClast (area under the concentration vs time curve from 0 to Tlast), AUCINF (area under the concentration vs time curve from 0 to infinity), T1/2 (terminal half-life), CL/F (apparent systemic clearance) and Vz/F (apparent terminal volume of distribution) were derived from the analyte plasma concentration vs time data according to a model independent approach for sparse data sampling by using Phoenix WinNonlin® ver. 6.3 software (Pharsight, Cetara).

For `CC(=O)SCCCCC[C@H](NC(=O)[C@H]1CCC(=O)N1)C(=O)Nc1ccccc1` [ST7612AA1], the IC50 in data set [1] is 380 nM; in data set [2], 190 ± 20 nM. In addition, the “ST7612AA1 in plasma after oral administration” value in data set [3] is given as “not detected”.

The values above are taken from PMC4467398, “Preclinical antitumor activity of ST7612AA1: a new oral thiol-based histone deacetylase (HDAC) inhibitor” (Oncotarget, 2014).
